According to ChEMBL document CHEMBL4359904, “Structural tuning of acridones for developing anticancer agents targeting dihydrofolate reductase” (Bioorg Med Chem Lett, 2019):

Experiments:
[1] = tested on: SNB-19; assay: Growth inhibition of human SNB19 cells incubated for 48 hrs by sulforhodamine B assay; format: functional; conditions: SNB-19, 48 h
[2] = tested on: HL-60(TB); assay: Growth inhibition of human HL-60(TB) cells incubated for 48 hrs by sulforhodamine B assay; format: functional; conditions: HL-60, 48 h
[3] = tested on: OVCAR-3; assay: Growth inhibition of human OVCAR3 cells incubated for 48 hrs by sulforhodamine B assay; format: functional; conditions: OVCAR-3, 48 h
[4] = tested on: SR; assay: Growth inhibition of human SR cells incubated for 48 hrs by sulforhodamine B assay; format: functional
[5] = tested on: NCI/ADR-RES; assay: Growth inhibition of human NCI/ADR-RES cells incubated for 48 hrs by sulforhodamine B assay; format: functional
[6] = tested on: HOP-92; assay: Growth inhibition of human HOP92 cells incubated for 48 hrs by sulforhodamine B assay; format: functional; conditions: HOP-92, 48 h
[7] = tested on: UACC-62; assay: Growth inhibition of human UACC62 cells incubated for 48 hrs by sulforhodamine B assay; format: functional; conditions: UACC-62, 48 h
[8] = tested on: HCT-15; assay: Growth inhibition of human HCT15 cells incubated for 48 hrs by sulforhodamine B assay; format: functional; conditions: HCT-15, 48 h
[9] = tested on: COLO 205; assay: Growth inhibition of human COLO205 cells incubated for 48 hrs by sulforhodamine B assay; format: functional; conditions: COLO 205, 48 h
[10] = tested on: IGROV-1; assay: Growth inhibition of human IGROV1 cells at 10^-5 M incubated for 48 hrs by sulforhodamine B assay relative to control; format: functional; conditions: IGROV-1, 48 h, read-out: GI
[11] = tested on: HT-29; assay: Growth inhibition of human HT-29 cells at 10^-5 M incubated for 48 hrs by sulforhodamine B assay relative to control; format: functional; conditions: HT-29, 48 h, read-out: GI
[12] = tested on: KM12; assay: Growth inhibition of human KM12 cells incubated for 48 hrs by sulforhodamine B assay; format: functional; conditions: KM12, 48 h
[13] = tested on: SF-268; assay: Growth inhibition of human SF268 cells incubated for 48 hrs by sulforhodamine B assay; format: functional; conditions: SF-268, 48 h
[14] = tested on: SK-MEL-2; assay: Growth inhibition of human SK-MEL-2 cells incubated for 48 hrs by sulforhodamine B assay; format: functional; conditions: SK-MEL-2, 48 h
[15] = tested on: NCI-H460; assay: Growth inhibition of human NCI-H460 cells incubated for 48 hrs by sulforhodamine B assay; format: functional; conditions: NCI-H460, 48 h
[16] = tested on: 786-0; assay: Growth inhibition of human 786-0 cells incubated for 48 hrs by sulforhodamine B assay; format: functional; conditions: 786-0, 48 h
[17] = tested on: LOX IMVI; assay: Growth inhibition of human LOXIMVI cells incubated for 48 hrs by sulforhodamine B assay; format: functional
[18] = tested on: OVCAR-5; assay: Growth inhibition of human OVCAR5 cells incubated for 48 hrs by sulforhodamine B assay; format: functional; conditions: OVCAR-5, 48 h
[19] = tested on: A549; assay: Growth inhibition of human A549/ATCC cells incubated for 48 hrs by sulforhodamine B assay; format: functional; conditions: A549, 48 h
[20] = tested on: SK-MEL-5; assay: Growth inhibition of human SK-MEL-5 cells incubated for 48 hrs by sulforhodamine B assay; format: functional; conditions: SK-MEL-5, 48 h
[21] = target: T1, Dihydrofolate reductase (Homo sapiens, UniProt P00374); assay: Inhibition of human dihydrofolate reductase using dihydrofolic acid as substrate preincubated for 1 hr in presence of NADPH followed by substrate addition by enzyme immunoassay
T1 sequence (P00374 whole entry): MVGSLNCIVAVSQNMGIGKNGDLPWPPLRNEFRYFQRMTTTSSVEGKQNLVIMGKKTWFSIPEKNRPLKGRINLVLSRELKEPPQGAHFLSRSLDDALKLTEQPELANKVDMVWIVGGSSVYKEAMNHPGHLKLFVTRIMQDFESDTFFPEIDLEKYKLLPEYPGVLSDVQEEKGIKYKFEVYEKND

[22] = tested on: PC-3; assay: Growth inhibition of human PC3 cells incubated for 48 hrs by sulforhodamine B assay; format: functional; conditions: PC-3, 48 h
[23] = tested on: Panel NCI-60 (60 carcinoma cell lines); assay: Growth inhibition of human NCI60 cells at incubated for 48 hrs by sulforhodamine B assay; format: functional
[24] = tested on: CCRF-CEM; assay: Growth inhibition of human CCRF-CEM cells at 10^-5 M incubated for 48 hrs by sulforhodamine B assay relative to control; format: functional; conditions: read-out: GI
[25] = tested on: T47D; assay: Growth inhibition of human T47D cells incubated for 48 hrs by sulforhodamine B assay; format: functional
[26] = tested on: C6; assay: Induction of morphological changes in rat C6 cells assessed as increase in total length of processes measured after 24 hrs by inverted microscopy analysis relative to control; format: functional
[27] = tested on: ACHN; assay: Growth inhibition of human ACHN cells incubated for 48 hrs by sulforhodamine B assay; format: functional
[28] = target: T1, Dihydrofolate reductase; assay: Inhibition of human dihydrofolate reductase assessed as inhibition constant by UV-Vis spectra based Benesi Hilebrand equation analysis
[29] = tested on: CCRF-CEM; assay: Growth inhibition of human CCRF-CEM cells incubated for 48 hrs by sulforhodamine B assay; format: functional
[30] = tested on: EKVX; assay: Growth inhibition of human EKVX cells incubated for 48 hrs by sulforhodamine B assay; format: functional
[31] = read-out: pLC50 (the source's name) (converted)
[32] = read-out: LC50 (the source's name)

O=c1c2ccccc2n(CC2CO2)c2ccccc12 (racemic)
GI50 [1]: 490 nM
CC50 [1, 31]: > 100000 nM
TGI ([1]; read-out: pTGI (converted)): 4370 nM
GI50 [2]: 204 nM
TGI ([2]; read-out: pTGI (converted)): 490 nM
GI50 [3]: 288 nM
CC50 [3, 31]: > 100000 nM
TGI ([3]; read-out: pTGI (converted)): 1510 nM
GI50 ([4]; read-out: GI50): 50 nM
CC50 [4, 32]: > 100000 nM
GI50 ([4]; read-out: pGI50 (converted)): 50.1 nM
CC50 [4, 31]: > 100000 nM
TGI ([4]; read-out: pTGI (converted)): 1860 nM
GI50 [5]: 257 nM
CC50 [5, 31]: > 100000 nM
TGI ([5]; read-out: pTGI (converted)): 1100 nM
GI50 [6]: 324 nM
CC50 [6, 31]: > 100000 nM
TGI ([6]; read-out: pTGI (converted)): 3890 nM
GI50 [7]: 234 nM
CC50 [7, 31]: 2400 nM
TGI ([7]; read-out: pTGI (converted)): 603 nM
GI50 [8]: 295 nM
CC50 [8, 31]: > 100000 nM
TGI ([8]; read-out: pTGI (converted)): 4570 nM
GI50 [9]: 245 nM
CC50 [9, 31]: 64600 nM
TGI ([9]; read-out: pTGI (converted)): 1410 nM
inhibition of growth at 10 µM [10]: 100%
inhibition of growth at 10 µM [11]: 100%
GI50 [12]: 269 nM
CC50 [12, 31]: 7760 nM
TGI ([12]; read-out: pTGI (converted)): 977 nM
GI50 ([13]; read-out: GI50): 160 nM
CC50 [13, 32]: > 100000 nM
GI50 ([13]; read-out: pGI50 (converted)): 170 nM
CC50 [13, 31]: > 100000 nM
TGI ([13]; read-out: pTGI (converted)): 1120 nM
GI50 [14]: 234 nM
CC50 [14, 31]: 2040 nM
TGI ([14]; read-out: pTGI (converted)): 513 nM
GI50 [15]: 380 nM
CC50 [15, 31]: > 100000 nM
TGI ([15]; read-out: pTGI (converted)): 1660 nM
GI50 [16]: 372 nM
CC50 [16, 31]: > 100000 nM
TGI ([16]; read-out: pTGI (converted)): 5250 nM
GI50 ([17]; read-out: GI50): 120 nM
CC50 [17, 32]: 5120 nM
GI50 ([17]; read-out: pGI50 (converted)): 126 nM
CC50 [17, 31]: 5130 nM
TGI ([17]; read-out: pTGI (converted)): 646 nM
GI50 [18]: 513 nM
CC50 [18, 31]: 24000 nM
TGI ([18]; read-out: pTGI (converted)): 3630 nM
GI50 [19]: 479 nM
CC50 [19, 31]: > 100000 nM
TGI ([19]; read-out: pTGI (converted)): 3800 nM
GI50 [20]: 209 nM
CC50 [20, 31]: 1120 nM
TGI ([20]; read-out: pTGI (converted)): 468 nM
IC50 [21]: 20 nM
GI50 [22]: 331 nM
CC50 [22, 31]: > 100000 nM
TGI ([22]; read-out: pTGI (converted)): 4790 nM
GI50 [23]: 1600 nM
TGI [23]: 5600 nM
CC50 [23, 32]: 44400 nM
inhibition of growth at 10 µM [24]: 93%
GI50 [25]: 891 nM
CC50 [25, 31]: > 100000 nM
TGI ([25]; read-out: pTGI (converted)): 5500 nM
Activity [26]: 16 - 18%
GI50 ([27]; read-out: GI50): 90 nM
CC50 [27, 32]: 790 nM
GI50 ([27]; read-out: pGI50 (converted)): 95.5 nM
CC50 [27, 31]: 794 nM
TGI ([27]; read-out: pTGI (converted)): 282 nM
Ki [28]: 1600 nM
GI50 ([29]; read-out: GI50): 70 nM
CC50 [29, 32]: > 100000 nM
GI50 ([29]; read-out: pGI50 (converted)): 76.9 nM
CC50 [29, 31]: > 100000 nM
GI50 [30]: 1380 nM
CC50 [30, 31]: > 100000 nM
TGI ([30]; read-out: pTGI (converted)): 5010 nM
